Test results taken from US20250084078A1, “FUSED RING-SUBSTITUTED SIX-MEMBERED HETEROCYCLIC COMPOUND, AND PREPARATION METHOD THEREFOR AND USE THEREOF” (GENFLEFT THERAPEUTICS (SHANGHAI) INC., priority 2022, published 2025).

What was measured:
HPK1 [1] = molecular target: T1, HPK1 (Homo sapiens, UniProt Q92918); assay: HPK1 kinase activity assay (ADP-Glo); settings: 1 nM HPK1, 10 μM ATP, 0.1 μg/μL MBP
T1 sequence (Q92918 1-346): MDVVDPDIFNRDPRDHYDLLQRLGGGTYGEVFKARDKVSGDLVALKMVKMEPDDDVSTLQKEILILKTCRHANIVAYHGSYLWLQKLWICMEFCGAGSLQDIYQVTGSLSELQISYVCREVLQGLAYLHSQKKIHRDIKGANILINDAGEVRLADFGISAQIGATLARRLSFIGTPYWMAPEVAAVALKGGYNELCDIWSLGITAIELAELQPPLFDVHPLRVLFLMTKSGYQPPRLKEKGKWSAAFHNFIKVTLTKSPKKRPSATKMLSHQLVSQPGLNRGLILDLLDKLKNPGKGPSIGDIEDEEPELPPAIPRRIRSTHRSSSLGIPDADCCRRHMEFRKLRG
Experimental: Preparation of buffer: Ix reaction buffer (40 mM Tris-HCl, 20 mM MgCl2, 0.01% Brij35, 50 μM DTT, 0.1 mg/ml BSA) was prepared using sterile water, which was prepared and used on the day of the experiment.
Preparation of 1000× drug stock plate: a 1000× compound stock plate was prepared. […] The compound stock plate was sealed with a sealing film and stored in a −20° C. refrigerator for later use.
Compound preparation and dosing: the 1000× drug stock plate was taken and melted at room temperature in the dark. Then 5× drug intermediate plate was prepared using reaction buffer and mixed well. 2 μL was transferred from the 5× drug intermediate plate into a 384-well plate, and negative control well and positive control well (in which 2 μL reaction buffer containing 0.5% DMSO was added) were set. Each point was repeated twice.
Preparation and incubation of reaction mixture: HPK1 protein was diluted to a 2.5× working solution with reaction buffer. 4 μL 2.5×HPK1 protein was added to each well containing test compound and positive control well, and 4 μL of reaction buffer without HPK1 protein was added to the negative control well. The obtained mixture was centrifuged at 1000 rpm for 1 min and then incubated in a 20° C. incubator for 15 min. A 2.5× mixed working solution of MBP protein and ATP was prepared with reaction buffer at concentrations of 0.5 μg/μL and 50 μM, respectively. 4 μL of the mixed working solution of MBP and ATP was added to each well, centrifuged at 1000 rpm for 1 min, and then incubated in a 20° C. incubator for 90 min.
ADP-Glo detection and reading plate: 10 μl ADP-Glo was added to each well of the test plate. The resulting mixture was centrifuged at 1000 rpm for 1 min and incubated in a 20° C. incubator for 60 min. Then 10 μL of the final incubation solution was transferred from the test plate to a new 384-well plate. 10 μL of kinase detection reagent was added to each well, centrifuged at 400 g for 1 min, and incubated in a 20° C. incubator for 60 min Chemiluminescent signals were read by a microplate reader.

HPK1 [2] = molecular target: HPK1 (Homo sapiens, UniProt Q92918); assay: SLP76 phosphorylation assay (intracellular HPK1 inhibitory activity, p-SLP76 S376 ELISA in Jurkat cells); settings: Clone E6-1 cells, 1 h compound pre-incubation, anti-CD3 beads stimulation 20 min, Phospho-SLP-76 (Ser376) ELISA
Target sequence in this assay (Q92918 whole entry): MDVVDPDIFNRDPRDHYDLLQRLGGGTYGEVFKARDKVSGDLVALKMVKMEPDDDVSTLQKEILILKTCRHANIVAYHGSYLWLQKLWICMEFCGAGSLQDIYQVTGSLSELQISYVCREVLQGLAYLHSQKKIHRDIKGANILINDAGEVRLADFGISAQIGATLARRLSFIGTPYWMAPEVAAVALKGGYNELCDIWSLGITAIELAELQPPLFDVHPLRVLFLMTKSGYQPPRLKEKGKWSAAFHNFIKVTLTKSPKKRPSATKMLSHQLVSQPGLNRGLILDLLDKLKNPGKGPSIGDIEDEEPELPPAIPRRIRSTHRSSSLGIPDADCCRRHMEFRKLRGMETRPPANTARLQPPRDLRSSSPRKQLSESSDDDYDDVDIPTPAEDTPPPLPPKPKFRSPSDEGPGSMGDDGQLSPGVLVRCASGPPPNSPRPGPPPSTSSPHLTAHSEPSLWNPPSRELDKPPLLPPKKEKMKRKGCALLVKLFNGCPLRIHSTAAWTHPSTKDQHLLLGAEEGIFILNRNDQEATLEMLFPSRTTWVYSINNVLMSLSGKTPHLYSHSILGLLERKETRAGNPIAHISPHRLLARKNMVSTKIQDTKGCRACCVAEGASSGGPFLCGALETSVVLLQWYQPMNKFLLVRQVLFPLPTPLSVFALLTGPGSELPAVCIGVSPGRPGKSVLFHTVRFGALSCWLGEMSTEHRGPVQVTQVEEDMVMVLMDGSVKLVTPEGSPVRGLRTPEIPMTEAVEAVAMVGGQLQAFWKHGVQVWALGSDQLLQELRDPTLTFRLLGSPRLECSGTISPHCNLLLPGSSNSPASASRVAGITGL

[3] = HPK1 Kinase activity IC50, ADP-Glo
[4] = read-out: HPK1 Kinase activity IC50, ADP-Glo

| IC50 (HPK1 [1]; [3]) [µM] | IC50 (HPK1 [2]; p-SLP76 IC50, Jurkat) [µM] | IC50 (HPK1 [1]; [4]) [µM] | IC50 (HPK1 [2]; read-out: p-SLP76 IC50, Jurkat) [µM] | SMILES |
| --- | --- | --- | --- | --- |
| – | – | 0.00226 | 0.469 | Cc1c[nH]c2ncc(-c3cc4c(c([C@@H]5CCCN5)c3)CN(C(=O)CC3CC3)CC4)cc12 [Compound Z220, (S)-2-cyclopropyl-1-(6-(3-methyl-1H-pyrrolo[2,3-b]pyridin-5-yl)-8-(pyrrolidin-2-yl)-3,4-dihydroisoquinolin-2(1H)-yl)ethanone] |
| 0.00081 | 0.453 | – | – | Cc1c[nH]c2ncc(-c3cc4c(c([C@@H]5CCCN5)c3)CN(C(=O)c3ccn(C5CC5)n3)CC4)cc12 [Compound Z494, (S)-(1-cyclopropyl-1H-pyrazol-3-yl)(6-(3-methyl-1H-pyrrolo[2,3-b]pyridin-5-yl)-8-(pyrrolidin-2-yl)-3,4-dihydroisoquinolin-2(1H)-yl)methanone] |
| 0.0004 | 0.338 | – | – | Cc1c[nH]c2ncc(-c3cc4c(c([C@@H]5CCCN5)c3)CN(C(=O)[C@H](O)c3cccnc3)CC4)cc12 (single isomer, unassigned) [Compound Z287] |
| – | – | 0.00064 | – | Cc1cn(C2CC2)nc1C(=O)N1CCc2cc(-c3cnc4[nH]cc(C)c4c3)cc([C@@H]3CCCN3)c2C1 [Compound Z342, (S)-(1-cyclopropyl-4-methyl-1H-pyrazol-3-yl)-[6-(3-methyl-1H-pyrrolo[2,3-b]pyridin-5-yl)-8-[pyrrolidin-2-yl]-3,4-dihydro-2(1H)-isoquinolin-yl]methanone] |
| 0.0227 | – | – | – | Cc1c[nH]c2ncc(-c3cc4c(c(C5COCCN5)c3)CN(C(=O)[C@](C)(O)C(F)(F)F)CC4)cc12 (single isomer, unassigned) [Compound Z309-2] |
| – | 0.0826 | – | – | Cc1c[nH]c2ncc(-c3cc4c(c(C5COCCN5)c3)CN(C(=O)[C@](C)(O)C(F)(F)F)CC4)cc12 (single isomer, unassigned) [Compound Z309-1] |
| 0.00087 | – | – | – | CCC(=O)N1CCc2cc(-c3cnc4[nH]cc(C)c4c3)cc(C3CCCN3)c2C1 (stereo not shown) [Compound Z35] |

The next lines start with the compound.

| SMILES | IC50 (HPK1 [1]; [3]) [µM] | IC50 (HPK1 [2]; p-SLP76 IC50, Jurkat) [µM] | IC50 (HPK1 [1]; [4]) [µM] | IC50 (HPK1 [2]; read-out: p-SLP76 IC50, Jurkat) [µM] |
| --- | --- | --- | --- | --- |
| Cc1c[nH]c2ncc(-c3cc4c(c([C@@H]5COCCN5)c3)CN(C(=O)N3C[C@H](C)O[C@@H](C)C3)CC4)cc12 [Compound Z512, ((2S,6S)-2,6-dimethylmorpholine)(6-(3-methyl-1H-pyrrolo[2,3-b]pyridin-5-yl)-8-((R)-morpholin-3-yl)-3,4-dihydroisoquinolin-2-1H-yl)methanone] | 0.00035 | 0.148 | – | – |
| Cc1c[nH]c2ncc(-c3cc4c(c([C@@H]5COCCN5)c3)CN(C(=O)N3C[C@H]5C[C@@H]3CO5)CC4)cc12 [Compound Z518] | 0.00022 | 0.13 | – | – |
| CC(C)c1c[nH]c2ncc(-c3cc4c(c([C@@H]5COCCN5)c3)CN(C(=O)C(C)(C)O)CC4)cc12 [Compound Z419, (R)-2-hydroxy-1-(6-(3-isopropyl-1H-pyrrolo[2,3-b]pyridin-5-yl)-8-(morpholin-3-yl)-3,4-dihydroisoquinolin-2(1H)-yl)-2-methylpropan-1-one] | 0.00011 | 0.0742 | – | – |
| Cc1c[nH]c2ncc(-c3cc4c(c([C@H]5COCCN5)c3)CCN(C(=O)C3CCOCC3)C4)cc12 [Compound Z449, (S)-(7-(3-methyl-1H-pyrrolo[2,3-b]pyridin-5-yl)-5-(morpholin-3-yl)-3,4-dihydroisoquinolin-2(1H)-yl)(tetrahydro-2H-pyran-4-yl)methanone] | 0.0124 | – | – | – |
| Cc1c[nH]c2ncc(-c3cc4c(c([C@@H]5COCCN5)c3)CN(C(=O)N3C[C@@H]5C[C@H]3CO5)CC4)cc12 [Compound Z463] | – | 0.293 | – | – |
| Cc1n[nH]c2ncc(-c3cc4c(c([C@@H]5COCCN5)c3)CN(C(=O)C(C)(C)O)CC4)cc12 [Compound Z455, (R)-2-hydroxy-2-methyl-1-(6-(3-methyl-1H-pyrazolo [3,4-b]pyridin-5-yl)-8-(morpholin-3-yl)-3,4-dihydroisoquinolin-2(1H)-yl)propan-1-one] | – | 4.43 | – | – |
